Results on five molecules are retold here after patent US4963655A, “Boron analogs of amino acid/peptide protease inhibitors” (Mayo Foundation for Medical Education and Research, priority 1988, dated 1990).

The subject of data set [1] is Human melanoma cells (A375). Description: Growth Inhibition Assay. The following applies: for Growth Inhibition (%) 24 hr: counted after 24 hr growth; for Growth Inhibition (%) 48 hr: counted after 48 hr growth; for Growth Inhibition (%) 96 hr: counted after 96 hr growth; for % Inhib (growth): 96 h exposure, fresh inhibitor every 24 h; for growth inhibitory activity (in words): other serine protease inhibitors, Table 2. It counts as cell-based. How it is done:
Human melanoma cells (A375) were seeded at 2 ×10^4 cells per tissue culture dish (60×15 mm, Falcon) in Delbecco's Minimal Essential Media (DMEM) containing 10% fetal calf serum and including 1% antibiotics. Cells were allowed to attach for 48 hours prior to exposure to drugs. Cbz-ala-1-borovaline and Cbz-ala-1-borophenylalanine were dissolved in dimethyl sulfoxide (DMSO). The final DMSO concentration in media was 0.5%. Fresh media was exchanged for the media including the drug at appropriate exposure times. Cells were counted after 24, 48 or 96 hours of growth using a Coulter counter. Growth inhibition is expressed as the percent reduction of drug treated cells with respect to untreated control cells.

Data set [2] relates to Human melanoma cells (A375). Nature of the data set: Colony Formation Assay (CFA). It counts as cell-based. The procedure: Human melanoma cells (A375) were seeded at 500 cells per tissue culture dish and allowed to recover for 48 hours. The drug and media mixture was prepared as described above. Following drug exposure, fresh media were substituted for the drug and media mixture. After 7 days, colonies were stained with 0.25% Coomassie Blue and enumerated. Data are expressed as the percent of colonies present in treated plates with respect to control plates (percent survival).

Data set [3] has as its system L1210 murine leukemia cells. Nature of the data set: Growth inhibition of L1210 cells in culture. It counts as cell-based. The following applies: 72-hour exposure, 0.03 uM. The procedure: Following a 72-hour exposure to 0.03 uM ala-1-borovaline, approximately 50% growth inhibition was observed. The two compounds are also cytotoxic to human tumor cell lines. While not yet fully understood, the mechanism of cytotoxicity is not via macromolecular synthesis inhibition in the human tumor cell lines.

In data set [4] the test system is human lung carcinoma (A549) cells. Nature of the data set: Growth and colony formation of A549 cells in culture. It counts as cell-based. The text has this: Qualitatively similar results were obtained against human lung carcinoma (A549) cells in culture (data not shown). […] The plateau, however, was not observed in association with the analog after the 1-hour (FIG. 3A) or continuous (FIG. 3C) exposure times. A similar plateau was never observed with Cbz-ala-1-borophenylalanine treatment. A plateau was also seen with A549 cells. A growth inhibition assay (Table 1) yielded qualitatively similar results as the colony formation assay.

Data set [5] deals with A375 cells. Nature of the data set: Macromolecular synthesis: protein synthesis ([3H]-leucine incorporation). In kind it is cell-based, human. The following applies: 0.075 ug/ml. The procedure:
Protein synthesis was determined by the incorporation of [^3 H]-leucine into protein in viable cells.
Human melanoma (A375) cells were seeded at 1 ×10^5 cells per tissue culture dish 48 hours prior to the addition of the drug (for example, Cbz-ala-1borovaline or Cbz-ala-1-borophenylalanine). The drug and media mixture was prepared as described above. During the last 30 minutes of drug exposure radioactive labeled precursors were added to the media and drug mixture. Specifically, either ^3 H-thymidine (0.2 uCi/ml, to measure DNA synthesis), ^3 H-uridine (0.2 uCi/ml, to measure RNA synthesis, or ^3 H-leucine (1 uCi/ml, to measure protein synthesis) were added. Following 30 minutes at 37° C., the cells were harvested, resuspended in physiological buffered saline (PBS) and the cells counted. An aliquot of the cell suspension was then lysed (10 mM Tris, 1 mM EDTA, 0.1% SDS) and macromolecules were precipitated with ice-cold trichloroacetic acid (TCA) (20%). Following three washes with TCA, radioactivity in the resulting pellet was counted on a Beckman LS2000 Scintillation Counter. Data is expressed as the percentage of counts incorporated into 1×10^6 treated cells as compared to 1×10^6 untreated cells (percent incorporation).

Data set [6] has as its system Lewis lung murine tumor cells. The following applies: Lewis lung murine tumor cells in culture; Goz et al.; cited from earlier work.

With `CC(NC(=O)OCc1ccccc1)C(=O)NC(B(O)O)C(C)C` (centres unmarked) [Cbz-ala-1-Borovaline, Cbz-ala-1-borovaline], the “Growth Inhibition (%) 24 hr” value is on record as 14% in data set [1] (exposure 1 h, 7.36 uM); 23% in data set [1] (exposure 1 h, 29.43 uM); 61% in data set [1] (exposure 24 h, 1.47 uM); 5% in data set [1] (exposure 24 h, .003 uM); 17% in data set [1] (exposure 24 h, .029 uM); 21% in data set [1] (exposure 96 h, .029 uM). In addition, the “Growth Inhibition (%) 24 hr” value in data set [1] (exposure 96 h, .736 uM) is 53%. Further, the “Growth Inhibition (%) 48 hr” value in data set [1] (exposure 1 h, 7.36 uM) is given as 33%; in data set [1] (exposure 1 h, 29.43 uM), 48%; in data set [1] (exposure 24 h, 1.47 uM), 88%; in data set [1] (exposure 24 h, .003 uM) it was 5%; in data set [1] (exposure 24 h, .029 uM), 50%; in data set [1] (exposure 96 h, .029 uM), 51%. Also, the “Growth Inhibition (%) 48 hr” value in data set [1] (exposure 96 h, .736 uM) stood at 78%. Besides, the “Growth Inhibition (%) 96 hr” value came out at 46% in data set [1] (exposure 1 h, 7.36 uM); 73% in data set [1] (exposure 1 h, 29.43 uM); 93% in data set [1] (exposure 24 h, 1.47 uM); 14% in data set [1] (exposure 24 h, .003 uM); 68% in data set [1] (exposure 24 h, .029 uM); 68% in data set [1] (exposure 96 h, .029 uM). The “Growth Inhibition (%) 96 hr” value in data set [1] (exposure 96 h, .736 uM) came out at 89%. For the same molecule, in data set [2] (FIG. 3), the “inhibition of colony formation, comparison of potency (in words)” value is “more potent inhibitor of colony formation than was Cbz-ala-1-borophenylalanine”. For the same molecule, the “Colony Formation Inhibition (%)” value in data set [2] (exposure 1 h, 7.36 uM) was found to be 41%; in data set [2] (exposure 1 h, 29.43 uM), 87%; in data set [2] (exposure 24 h, 1.47 uM) it was 87%; in data set [2] (exposure 24 h, .003 uM), 5%; in data set [2] (exposure 24 h, .029 uM), 43%. Further, the growth inhibition entry in data set [3] is “approximately 50%”. For the same molecule, the “inhibition of growth and colony formation (in words)” value in data set [4] is given as “effective inhibitors”.

For the molecule “N-tosylphenylalanine chloromethyl ketone [TPCK, reference compound]”, the “% Inhib (growth)” value in data set [1] (2.84 uM) was 42%; in data set [1] (28.4 uM), 100%; in data set [1] (142 uM) it was 100%; in data set [1] (284 uM), 100%; in data set [1] (.028 uM), 5%; in data set [1] (.284 uM) it was 9%. The “growth inhibitory activity (in words)” value in data set [1] is “inhibited growth at very high concentrations”.

In data set [1] (0.075 ug/ml, 24-hour exposure), `CC(NC(=O)OCc1ccccc1)C(=O)NC(Cc1ccccc1)B(O)O` (centres unmarked) [Cbz-ala-1-Borophenylalanine, Cbz-ala-1-borophenylalanine] came in with a growth inhibition of 70%. The “Growth Inhibition (%) 24 hr” value in data set [1] (exposure 1 h, 51.6 uM) was 20%; in data set [1] (exposure 1 h, 129 uM) it was 42%; in data set [1] (exposure 24 h, .026 uM), 5%; in data set [1] (exposure 24 h, .129 uM), 41%; in data set [1] (exposure 24 h, .645 uM) it was 75%; in data set [1] (exposure 96 h, .1239 uM), 38%. Further, the “Growth Inhibition (%) 24 hr” value in data set [1] (exposure 96 h, .258 uM) was found to be 58%. Also, the “Growth Inhibition (%) 48 hr” value is reported as 41% in data set [1] (exposure 1 h, 51.6 uM); 65% in data set [1] (exposure 1 h, 129 uM); 3% in data set [1] (exposure 24 h, .026 uM); 63% in data set [1] (exposure 24 h, .129 uM); 72% in data set [1] (exposure 24 h, .645 uM); 68% in data set [1] (exposure 96 h, .1239 uM). Besides, the “Growth Inhibition (%) 48 hr” value in data set [1] (exposure 96 h, .258 uM) was 91%. In addition, the “Growth Inhibition (%) 96 hr” value stood at 52% in data set [1] (exposure 1 h, 51.6 uM); 69% in data set [1] (exposure 1 h, 129 uM); 15% in data set [1] (exposure 24 h, .026 uM); 68% in data set [1] (exposure 24 h, .129 uM); 98% in data set [1] (exposure 24 h, .645 uM); 75% in data set [1] (exposure 96 h, .1239 uM). Moreover, the “Growth Inhibition (%) 96 hr” value in data set [1] (exposure 96 h, .258 uM) is given as 95%. Moreover, the “Colony Formation Inhibition (%)” value in data set [2] (exposure 1 h, 51.6 uM) amounted to 55%; in data set [2] (exposure 24 h, .026 uM) it was 10%; in data set [2] (exposure 24 h, .129 uM), 35%; in data set [2] (exposure 24 h, .645 uM) it was 97%. Further, the “inhibition of protein synthesis” value in data set [5] is “did not show an acute inhibition of protein synthesis”. Further, the “inhibition of growth and colony formation (in words)” value in data set [4] is reported as “effective inhibitors”. In addition, the “cytotoxicity (in words)” value in data set [6] is listed as “modest activity”.

Consider Aprotinin [reference compound], for which the “% Inhib (growth)” value in data set [1] (1.54 uM), in data set [1] (15.4 uM), in data set [1] (.015 uM) and in data set [1] (.154 uM) was 0% each time. The “growth inhibitory activity (in words)” value in data set [1] is recorded as “Negligible growth inhibition”.

B1: Ovomucoid: serine protease inhibitor (protein, UniProt P01005 25-210, looked up)
Ovomucoid: AEVDCSRFPNATDKEGKDVLVCNKDLRPICGTDGVTYTNDCLLCAYSIEFGTNISKEHDGECKETVPMNCSSYANTTSEDGKVMVLCNRAFNPVCGTDGVTYDNECLLCAHKVEQGASVDKRHDGGCRKELAAVSVDCSEYPKPDCTAEDRPLCGSDNKTYGNKCNFCNAVVESNGTLTLSHFGKC
Take B1: the “% Inhib (growth)” value is recorded as 0% in data set [1] (3.57 uM); 0% in data set [1] (17.9 uM); 5% in data set [1] (89.3 uM); 0% in data set [1] (.004 uM); 0% in data set [1] (.036 uM); 1% in data set [1] (.357 uM). In addition, the “growth inhibitory activity (in words)” value in data set [1] was “Negligible growth inhibition”.
